PubChem BioAssay AID256 (DTP/NCI, 2004)
Where “and” joins values, the source holds several entries; their conditions need not be identical. Equal values may be shown once. Inconclusive results and toxic doses are left out. How the source made its calls: active means survival T/C of 150% or more; inactive means T/C below 125% in these data.

System: CD2F1 mice, L1210 leukemia ip, survival T/C
Test: NCI In Vivo Anticancer Drug Screen. Data for tumor model L1210 Leukemia (intraperitoneal) in CD2F1 (CDF1) mice
Conditions: endpoint: mean survival time, higher = longer survival
Procedure, shortened: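 Mice carrying a transplanted tumor received test compound or vehicle alone. The value is the measurement in the treated group divided by that in the vehicle-treated control group.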

[1] = dose: 12.5 mg/kg/injection, schedule: Q01DX009 (ip), vehicle: saline with Tween-80
[2] = dose: 50.0 mg/kg/injection, schedule: Q01DX009 (ip), vehicle: saline with Tween-80
[3] = dose: 100.0 mg/kg/injection, schedule: Q01DX009 (ip), vehicle: saline with Tween-80
[4] = dose: 200.0 mg/kg/injection, schedule: Q01DX009 (ip), vehicle: saline with Tween-80
[5] = dose: 100.0 mg/kg/injection, schedule: Q01DX001 (ip), vehicle: saline with Tween-80
[6] = dose: 400.0 mg/kg/injection, schedule: Q01DX001 (ip), vehicle: saline with Tween-80
[7] = dose: 100.0 mg/kg/injection, schedule: Q04DX003 (ip), vehicle: saline with Tween-80
[8] = dose: 200.0 mg/kg/injection, schedule: Q04DX003 (ip), vehicle: saline with Tween-80
[9] = dose: 400.0 mg/kg/injection, schedule: Q01DX009 (ip), vehicle: saline with Tween-80
[10] = dose: 400.0 mg/kg/injection, schedule: Q04DX003 (ip), vehicle: saline with Tween-80

Measured: T/C

[O-][n+]1c(CN2CCCCC2)nc2cccc3c2c1-c1ccccc1-3
inactive: [1] 104 % of control | dose: 25.0 mg/kg/injection, schedule: Q01DX009 (ip), vehicle: saline with Tween-80 103 % of control | [2] 103 % of control | [3] 113 % of control | [4] 109 % of control

Cn1c(-c2ccccc2)nc2c(N)ncnc21
inactive: [5] 93 % of control | [6] 87 % of control

Cc1nc(N)nc2ccccc12
inactive: dose: 100.0 mg/kg/injection, schedule: Q01DX001 (ip), vehicle: saline 100 % of control

CCNC(=S)Nc1ccccc1
inactive: [2] 103 % of control | [3] 100 % of control | [4] 111 % of control

CCCCCCCCCCCCOc1ccc(Sc2ccc(OCCCCCCCCCCCC)cc2C)c(C)c1
inactive: [5] 86 % of control

Cc1cc(C(=O)c2ccccn2)c2cc(Cl)cc(Cl)c2n1
inactive: [3] 93 % of control | [7] 88 % of control | [4] 91 % of control | [8] 94 % of control | [9] 87 % of control | [10] 94 % of control

Nc1ccc(N(S(=O)(=O)c2ccccc2)S(=O)(=O)c2ccccc2)c(Cl)c1
inactive: [5] 96 % of control | dose: 200.0 mg/kg/injection, schedule: Q01DX001 (ip), vehicle: saline with Tween-80 98 % of control | [6] 96 % of control

O=C(CCl)Nc1ccccc1Cl
inactive: dose: 100.0 mg/kg/injection, schedule: Q04DX003 (ip), vehicle: Klucel (hydroxypropylcellulose) (HPC) 97 % of control | dose: 200.0 mg/kg/injection, schedule: Q04DX003 (ip), vehicle: Klucel (hydroxypropylcellulose) (HPC) 103 % of control

CC(=O)OCC1OC([S-])C(OC(C)=O)C(OC(C)=O)C1OC(C)=O.CC[PH+](CC)CC.CC[PH+](CC)CC.[Au].[Au] (stereo unspecified)
inactive: dose: 0.62 mg/kg/injection, schedule: Q01DX009 (ip), vehicle: Klucel (hydroxypropylcellulose) (HPC) 100 % of control and 102 % of control | dose: 1.25 mg/kg/injection, schedule: Q01DX009 (ip), vehicle: Klucel (hydroxypropylcellulose) (HPC) 100 % of control and 104 % of control | dose: 2.5 mg/kg/injection, schedule: Q01DX009 (ip), vehicle: Klucel (hydroxypropylcellulose) (HPC) 96 % of control and 102 % of control | dose: 5.0 mg/kg/injection, schedule: Q01DX009 (ip), vehicle: Klucel (hydroxypropylcellulose) (HPC) 97 % of control and 98 % of control | dose: 10.0 mg/kg/injection, schedule: Q01DX009 (ip), vehicle: Klucel (hydroxypropylcellulose) (HPC) 94 % of control and 97 % of control

CC1(C)c2c3ccccc3cc3cccc(c23)[S+]1c1ccccc1 (stereo unspecified)
inactive: dose: 5.0 mg/kg/injection, schedule: Q01DX001 (ip), vehicle: saline with Tween-80 105 % of control | dose: 10.0 mg/kg/injection, schedule: Q01DX001 (ip), vehicle: saline with Tween-80 106 % of control | dose: 20.0 mg/kg/injection, schedule: Q01DX001 (ip), vehicle: saline with Tween-80 111 % of control

O=C(O)C(F)(F)C(F)(F)C(F)(F)C(F)=C(F)F
inactive: dose: 75.0 mg/kg/injection, schedule: Q01DX001 (ip), vehicle: saline 103 % of control | dose: 150.0 mg/kg/injection, schedule: Q01DX001 (ip), vehicle: saline 101 % of control

O=C1CSC(=S)N1/N=C/c1ccc(Cl)c([N+](=O)[O-])c1
inactive: [3] 92 % of control | [7] 92 % of control | [4] 100 % of control | [8] 95 % of control | [9] 90 % of control | [10] 86 % of control

CN1C(=S)c2ccccc2S1(=O)=O
inactive: dose: 100.0 mg/kg/injection, schedule: Q01DX009 (ip), vehicle: saline 96 % of control | dose: 200.0 mg/kg/injection, schedule: Q01DX009 (ip), vehicle: saline 96 % of control | dose: 400.0 mg/kg/injection, schedule: Q01DX009 (ip), vehicle: saline 102 % of control

CCOC(=O)C(NC(N)=O)C(=O)OCC
inactive: dose: 25.0 mg/kg/injection, schedule: Q01DX009 (ip), vehicle: water 91 % of control | dose: 50.0 mg/kg/injection, schedule: Q01DX009 (ip), vehicle: water 91 % of control | dose: 100.0 mg/kg/injection, schedule: Q01DX009 (ip), vehicle: water 93 % of control | dose: 200.0 mg/kg/injection, schedule: Q01DX009 (ip), vehicle: water 89 % of control | dose: 400.0 mg/kg/injection, schedule: Q01DX009 (ip), vehicle: water 93 % of control

CCCCCCCCCCCCCCCc1ccc(C(=O)C[n+]2ccccc2)cc1
inactive: [1] 117 % of control | dose: 12.5 mg/kg/injection, schedule: Q04DX003 (ip), vehicle: saline with Tween-80 103 % of control | dose: 25.0 mg/kg/injection, schedule: Q04DX003 (ip), vehicle: saline with Tween-80 106 % of control | dose: 50.0 mg/kg/injection, schedule: Q04DX003 (ip), vehicle: saline with Tween-80 111 % of control
